Measured values from patent US20040082635A1, “Fused cyclic compounds and medicinal use thereof” (priority 2001, published 2004).
pIC50: −log10 of the molar value.

The compounds below were run against T1, HCV polymerase (Hepatitis C virus genotype 1b, UniProt P26663) (assay: biochemical). Conditions: read-out: HCV polymerase inhibitory activity IC50.
T1 construct: a region encoding NS5B (591 amino acids; J Virol 1991 Mar, 65(3), 1105-13) was amplified by PCR; 6 His (N); made in house; host or cells: Escherichia coli
T1 sequence (P26663 2420-3010): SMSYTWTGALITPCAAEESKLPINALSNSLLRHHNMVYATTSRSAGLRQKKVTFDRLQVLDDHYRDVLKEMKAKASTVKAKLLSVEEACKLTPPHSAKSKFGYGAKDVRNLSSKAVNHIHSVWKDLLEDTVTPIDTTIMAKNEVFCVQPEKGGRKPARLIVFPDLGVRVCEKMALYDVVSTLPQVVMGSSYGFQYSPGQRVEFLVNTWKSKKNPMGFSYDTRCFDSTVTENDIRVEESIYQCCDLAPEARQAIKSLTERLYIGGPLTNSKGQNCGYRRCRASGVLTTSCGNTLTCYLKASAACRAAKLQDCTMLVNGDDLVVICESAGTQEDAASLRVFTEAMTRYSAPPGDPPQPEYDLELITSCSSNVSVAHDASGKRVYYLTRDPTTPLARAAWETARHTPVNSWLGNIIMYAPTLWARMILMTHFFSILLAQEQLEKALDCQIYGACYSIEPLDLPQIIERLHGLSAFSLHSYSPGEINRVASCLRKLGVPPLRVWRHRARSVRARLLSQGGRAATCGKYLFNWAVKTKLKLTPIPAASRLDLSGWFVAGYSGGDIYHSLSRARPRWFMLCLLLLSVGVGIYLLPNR
In the case of `O=C(O)c1ccc2c(c1)nc(-c1ccc(OC[C@@H]3CCCN3S(=O)(=O)c3ccccc3)cc1)n2C1CCCCC1` [Example 193, 2-{4-[{(2S)-1-benzenesulfonyl-2-pyrrolidinyl}methoxy]phenyl}-1-cyclohexylbenzimidazole-5-carboxylic acid], the pIC50 was 6.89.
For `O=C(O)c1ccc2c(c1)nc(-c1ccc(OC[C@@H]3CCCN3C(=O)c3ccccc3)cc1)n2C1CCCCC1` [Example 194, 2-{4-[{(2S)-1-benzoyl-2-pyrrolidinyl}methoxy]phenyl}-1-cyclohexylbenzimidazole-5-carboxylic acid], the pIC50 was 6.28.
Compound `NC(=O)c1ccc(-c2ccc(Cl)cc2COc2ccc(-c3nc4cc(C(=O)O)ccc4n3C3CCCCC3)cc2)cc1` [Example 195, 2-{4-[2-(4-carbamoylphenyl)-5-chlorobenzyloxy]phenyl}-1-cyclohexylbenzimidazole-5-carboxylic acid] has a pIC50 of 7.64.
Compound `CN(C)C(=O)COc1cccc(Oc2ccc(-c3nc4cc(C(=O)O)ccc4n3C3CCCCC3)cc2)c1` [Example 196, 1-cyclohexyl-2-{4-[3-(dimethylcarbamoylmethoxy)phenoxy]phenyl}benzimidazole-5-carboxylic acid] has a pIC50 of 6.70.
`O=C(O)c1ccc2c(c1)nc(-c1ccc(Oc3cccc(OCC(=O)N4CCCCC4)c3)cc1)n2C1CCCCC1` [Example 197, 1-cyclohexyl-2-{4-[3-(piperidinocarbonylmethoxy)phenoxy]-phenyl}benzimidazole-5-carboxylic acid] gave a pIC50 of 6.96.
`CS(=O)(=O)N1CCC(COc2cccc(Oc3ccc(-c4nc5cc(C(=O)O)ccc5n4C4CCCCC4)cc3)c2)CC1` [Example 198, 1-cyclohexyl-2-{4-[3-{(1-methanesulfonyl-4-piperidyl)methoxy}-phenoxy]phenyl}benzimidazole-5-carboxylic acid] gave a pIC50 of 7.36.
`Cc1nc(COc2ccc(-c3nc4cc(C(=O)O)ccc4n3C3CCCCC3)cc2)c(-c2ccc(Cl)cc2)o1` [Example 199, 1-cyclohexyl-2-{4-[{2-methyl-5-(4-chlorophenyl)-4-oxazolyl}-methoxy]phenyl}benzimidazole-5-carboxylic acid] was tested, and the pIC50 was 6.96.
`O=C(O)c1ccc2c(c1)nc(-c1ccc(Oc3cccc(OCc4cccc(Cl)c4)c3)cc1)n2C1CCCCC1` [Example 200, 2-{4-[3-(3-chlorobenzyloxy)phenoxy]phenyl}-1-cyclohexylbenzimidazole-5-carboxylic acid] was tested, and the pIC50 was 7.00.
In the case of `O=C(O)c1ccc2c(c1)nc(-c1ccc(Oc3cccc(OCc4ccc(Cl)cc4)c3)cc1)n2C1CCCCC1` [Example 201, 2-{4-[3-(4-chlorobenzyloxy)phenoxy]phenyl}-1-cyclohexylbenzimidazole-5-carboxylic acid], the pIC50 was 6.85.
In the case of `O=C(O)c1ccc2c(c1)nc(-c1ccc(Oc3cccc(OCc4ccc(F)cc4)c3)cc1)n2C1CCCCC1` [Example 202, 1-cyclohexyl-2-{4-[3-(4-fluorobenzyloxy)phenoxy]phenyl}-benzimidazole-5-carboxylic acid], the pIC50 was 7.02.
Compound `O=C(O)c1ccc2c(c1)nc(-c1ccc(OC[C@@H]3CCCN3c3ccc([N+](=O)[O-])cc3)cc1)n2C1CCCCC1` [Example 203, 1-cyclohexyl-2-{4-[{(2S)-1-(4-nitrophenyl)-2-pyrrolidinyl}-methoxy]phenyl}benzimidazole-5-carboxylic acid] has a pIC50 of 7.20.
With `CC(=O)Nc1ccc(N2CCC[C@H]2COc2ccc(-c3nc4cc(C(=O)O)ccc4n3C3CCCCC3)cc2)cc1` [Example 205, 2-{4-[{(2S)-1-(4-acetylaminophenyl)-2-pyrrolidinyl}methoxy]-phenyl}-1-cyclohexylbenzimidazole-5-carboxylic acid] the pIC50 was 7.11.
For `Cc1nc(COc2ccc(-c3nc4cc(C(=O)O)ccc4n3C3CCCCC3)cc2)c(-c2ccc(Cl)cc2)s1` [Example 206, 2-{4-[{5-(4-chlorophenyl)-2-methyl-4-thiazolyl}methoxy]phenyl}-1-cyclohexylbenzimidazole-5-carboxylic acid], the pIC50 was 7.30.
In the case of `O=C(O)c1ccc2c(c1)nc(-c1ccc(OCc3cccc([N+](=O)[O-])c3-c3ccc(Cl)cc3)cc1)n2C1CCCCC1` [Example 208, 1-cyclohexyl-2-{4-[2-(4-chlorophenyl)-3-nitrobenzyloxy]phenyl}-benzimidazole-5-carboxylic acid], the pIC50 was 7.41.
Compound `O=C(O)c1ccc2c(c1)nc(-c1ccc(Oc3cccc(OC4CCOCC4)c3)cc1)n2C1CCCCC1` [Example 209, 1-cyclohexyl-2-{4-[3-(4-tetrahydropyranyloxy)phenoxy]phenyl}-benzimidazole-5-carboxylic acid] has a pIC50 of 6.92.
`O=C(O)c1ccc2c(c1)nc(-c1ccc(Oc3cccc(OCc4ccc(C(F)(F)F)cc4)c3)cc1)n2C1CCCCC1` [Example 210, 1-cyclohexyl-2-{4-[3-(4-trifluoromethylbenzyloxy)phenoxy]phenyl}-benzimidazole-5-carboxylic acid] showed a pIC50 of 6.51.
For `CN1CCC(COc2cccc(Oc3ccc(-c4nc5cc(C(=O)O)ccc5n4C4CCCCC4)cc3)c2)CC1` [Example 211, 1-cyclohexyl-2-{4-[3-{(1-methyl-4-piperidyl)methoxy}phenoxy]-phenyl}benzimidazole-5-carboxylic acid], the pIC50 was 7.23.
`CC(C)(C)c1ccc(COc2cccc(Oc3ccc(-c4nc5cc(C(=O)O)ccc5n4C4CCCCC4)cc3)c2)cc1` [Example 212, 2-{4-[3-(4-tert-butylbenzyloxy)phenoxy]phenyl}-1-cyclohexylbenzimidazole-5-carboxylic acid] gave a pIC50 of 6.64.
`O=C(O)c1ccc2c(c1)nc(-c1ccc(Oc3cccc(OCc4ccccc4Cl)c3)cc1)n2C1CCCCC1` [Example 213, 2-{4-[3-(2-chlorobenzyloxy)phenoxy]phenyl}-1-cyclohexylbenzimidazole-5-carboxylic acid] showed a pIC50 of 7.00.
`O=C(O)c1ccc2c(c1)nc(-c1ccc(Oc3cccc(-c4cccnc4)c3)cc1)n2C1CCCCC1` [Example 214, 1-cyclohexyl-2-{4-[3-(3-pyridyl)phenoxy]phenyl}benzimidazole-5-carboxylic acid] was tested, and the pIC50 was 7.23.
Compound `O=C(O)c1ccc2c(c1)nc(-c1ccc(Oc3cccc(-c4ccc(Cl)cc4)c3)cc1)n2C1CCCCC1` [Example 215, 2-{4-[3-(4-chlorophenyl)phenoxy]phenyl}-1-cyclohexylbenzimidazole-5-carboxylic acid] has a pIC50 of 7.11.
With `COc1ccc(-c2cccc(Oc3ccc(-c4nc5cc(C(=O)O)ccc5n4C4CCCCC4)cc3)c2)cc1` [Example 216, 1-cyclohexyl-2-{4-[3-(4-methoxyphenyl)phenoxy]phenyl}-benzimidazole-5-carboxylic acid] the pIC50 was 7.08.
For `Cc1nc(-c2ccc(S(C)(=O)=O)cc2)c(COc2ccc(-c3nc4cc(C(=O)O)ccc4n3C3CCCCC3)cc2)s1` [Example 217, 1-cyclohexyl-2-{4-[{4-(4-methanesulfonylphenyl)-2-methyl-5-thiazolyl}methoxy]phenyl}benzimidazole-5-carboxylic acid], the pIC50 was 7.24.
`Cc1nc(-c2ccc(Cl)cc2)c(COc2ccc(-c3nc4cc(C(=O)O)ccc4n3C3CCCCC3)cc2)s1` [Example 218, 2-{4-[{4-(4-chlorophenyl)-2-methyl-5-thiazolyl}methoxy]phenyl}-1-cyclohexylbenzimidazole-5-carboxylic acid] showed a pIC50 of 7.48.
Compound `O=C(O)c1ccc2c(c1)nc(-c1ccc(OC3CCCN(Cc4ccc(Cl)cc4)C3)cc1)n2C1CCCCC1` (stereo not shown) [Example 219, 2-{4-[1-(4-chlorobenzyl)-3-piperidyloxy]phenyl}-1-cyclohexylbenzimidazole-5-carboxylic acid] has a pIC50 of 6.89.
For `Cc1nc(COc2cccc(Oc3ccc(-c4nc5cc(C(=O)O)ccc5n4C4CCCCC4)cc3)c2)cs1` [Example 220, 1-cyclohexyl-2-{4-[3-{(2-methyl-4-thiazolyl)methoxy}phenoxy]-phenyl}benzimidazole-5-carboxylic acid], the pIC50 was 7.14.
`Cc1nc(C)c(COc2cccc(Oc3ccc(-c4nc5cc(C(=O)O)ccc5n4C4CCCCC4)cc3)c2)s1` [Example 221, 1-cyclohexyl-2-{4-[3-{(2,4-dimethyl-5-thiazolyl)methoxy}phenoxy]-phenyl}benzimidazole-5-carboxylic acid] gave a pIC50 of 7.24.
Compound `O=C(O)c1ccc2c(c1)nc(-c1ccc(Oc3cccc(-c4cc(Cl)cc(Cl)c4)c3)cc1)n2C1CCCCC1` [Example 222, 1-cyclohexyl-2-{4-[3-(3,5-dichlorophenyl)phenoxy]phenyl}-benzimidazole-5-carboxylic acid] has a pIC50 of 7.39.
For `O=C(O)c1ccc2c(c1)nc(-c1ccc(OC3CCN(Cc4ccc(Cl)cc4)CC3)cc1)n2C1CCCCC1` [Example 223, 2-{4-[1-(4-chlorobenzyl)-4-piperidyloxy]phenyl}-1-cyclohexylbenzimidazole-5-carboxylic acid], the pIC50 was 6.68.
`NC(=O)c1ccc(COc2ccc(-c3nc4cc(C(=O)O)ccc4n3C3CCCCC3)cc2)c(-c2ccc(Cl)cc2)c1` [Example 225, 2-{4-[4-carbamoyl-2-(4-chlorophenyl)benzyloxy]phenyl}-1-cyclohexylbenzimidazole-5-carboxylic acid] was tested, and the pIC50 was 7.85.
`O=C(O)c1ccc2c(c1)nc(-c1ccc(Oc3cccc(OCc4ccnc(Cl)c4)c3)cc1)n2C1CCCCC1` [Example 227, 2-{4-[3-{(2-chloro-4-pyridyl)methoxy}phenoxy]phenyl}-1-cyclohexylbenzimidazole-5-carboxylic acid] showed a pIC50 of 7.35.
`CN(C)C(=O)c1ccc(N2CCC[C@H]2COc2ccc(-c3nc4cc(C(=O)O)ccc4n3C3CCCCC3)cc2)cc1` [Example 228, 2-{4-[{(2S)-1-(4-dimethylcarbamoylphenyl)-2-pyrrolidinyl}-methoxy]phenyl}-1-cyclohexylbenzimidazole-5-carboxylic acid] was tested, and the pIC50 was 6.74.
In the case of `CCOC(=O)c1ccc(-c2ccc(Cl)cc2)c(COc2ccc(-c3nc4cc(C(=O)O)ccc4n3C3CCCCC3)cc2)c1` [Example 229, 2-{4-[2-(4-chlorophenyl)-5-ethoxycarbonylbenzyloxy]phenyl}-1-cyclohexylbenzimidazole-5-carboxylic acid], the pIC50 was 7.66.
With `O=C(O)c1ccc2c(c1)nc(-c1ccc(Oc3cccc(C(F)(F)F)c3)cc1)n2C1CCCCC1` [Example 230, 1-cyclohexyl-2-[4-(3-trifluoromethylphenoxy)phenyl]-benzimidazole-5-carboxylic acid] the pIC50 was 6.77.
